Data set [1] deals with T1, Hb (Homo sapiens, UniProt P69905). The experiment in a line: Hb modification (drug-adduct formation) in SS blood suspensions by cation-exchange HPLC. Format: binding. Set-up: Blood suspensions from subjects with homozygous SCD; from tissue; host or cells: blood suspensions (20% hematocrit) from donors with homozygous SCD; lysates of the treated red cells. The settings on record: 2 mM, 4 biological replicates. In a few lines:
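Homozygous SCD blood at 20% hematocrit in Hemox buffer with glucose and BSA was incubated with compound (0-2 mM) 1 h at 37° C in air, then up to 2 h hypoxia (2.5% O2). Lysates, with or without 50 mM sodium borohydride reduction, were analysed by weak cation-exchange HPLC at A410 nm for Hb-drug adducts.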
Target sequence in this assay (P69905 2-142): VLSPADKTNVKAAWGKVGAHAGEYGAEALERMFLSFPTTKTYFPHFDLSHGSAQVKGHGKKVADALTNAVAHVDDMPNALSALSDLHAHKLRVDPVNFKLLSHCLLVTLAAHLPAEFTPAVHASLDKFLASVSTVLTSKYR
Target sequence in this assay (P68871 with tags, fused parts or gaps E7V partner): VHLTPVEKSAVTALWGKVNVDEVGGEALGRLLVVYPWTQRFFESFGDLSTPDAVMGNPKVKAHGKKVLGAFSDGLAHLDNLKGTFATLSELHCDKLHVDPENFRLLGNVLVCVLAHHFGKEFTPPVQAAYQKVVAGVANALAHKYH

The target in data set [2] is T1, Hb. As to the kind of experiment: Drug partitioning studies, fixed and unfixed Hb adducts in non-sickling AA blood. Format: cell-based. On the set-up: Hemoglobin modification, studies using non-sickling AA blood; from tissue; host or cells: non-sickling (AA) human blood, red blood cells. The settings on record: 2 mM. The procedure, abridged: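 Non-sickling blood was incubated with test molecules and lysed either in water (unfixed) or in 50 mM sodium borohydride (fixed). Hb adducts were quantified by cation-exchange HPLC as a fraction of total Hb. The partitioning ratio is fixed over unfixed modification and reflects intracellular Hb binding after RBC membrane permeation.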
Target sequence in this assay (P69905 2-142 limits assumed): as the sequence (P69905 2-142) above
Target sequence in this assay (P68871 2-147 partner limits assumed): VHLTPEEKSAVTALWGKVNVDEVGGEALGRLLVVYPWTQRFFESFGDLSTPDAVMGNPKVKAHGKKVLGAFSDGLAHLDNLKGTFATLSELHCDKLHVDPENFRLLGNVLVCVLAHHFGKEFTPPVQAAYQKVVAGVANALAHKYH

A short description of data set [3]: Single-dose oral pharmacokinetics in rats. Format: in vivo, Sprague Dawley rats. To be noted: oral administration, data not shown.
For data set [4], the system named is RBCs from donors with homozygous SCD. The experiment in a line: Sickle inhibition in SS blood suspensions under hypoxia (2.5% oxygen). Format: cell-based. The settings on record: Homo sapiens, 2 mM, 4 biological replicates, read-out: % Sickling Inhibition (Hypoxia). As for the experimental part:
All compounds (Comp 1-13) and comparator molecules (VZHE-039, PP-14, INN-310, and Voxelotor) were evaluated following established procedures. Blood samples from individual donors with homozygous SCD (obtained with informed consent) were diluted using Hemox buffer solution with the addition of glucose (10 mM) and BSA (0.2%) to adjust hematocrit of the blood suspensions to 20%, which standardizes the procedure to normalize the ratio of RBCs to drug, for assay consistency and reproducibility. Briefly, blood suspensions were incubated under room air in the presence of various concentrations of test compounds (0-2 mM) at 37° C. for 1 hour in 96-well round bottom plates. Subsequently, the suspensions were incubated with a hypoxic gas mixture (2.5% Oxygen gas/balance Nitrogen gas) at 37° C. for up to 2 hours prior to fixation with 2% glutaraldehyde solution without exposure to air. The fixated blood aliquots were evaluated by microscopic morphological analysis (image analysis on Image J software) to identify the proportion of sickled and non-sickled RBCs, and sickle inhibition calculated based on the % change from negative control (DMSO).

For data set [5], the target named is T2, Hb (Mus musculus, UniProt P01942).
T2 construct: from tissue; host or cells: blood (red cell lysates) of dosed C57BL/6 mice
The experiment in a line: In vivo Hb oxygen affinity shift (Δp50) in wild-type mice. To be noted: for increase in Hb affinity (Δp50): IP 150 mg/kg. On the set-up: species or system C57BL/6 mice. The procedure:
We tested in vivo pharmacologic (pharmacodynamics) effects of select PP compounds in C57BL/6 mice. The animals were treated with a single intraperitoneal (IP) (150 mg/kg body weight) dose of PP6, PP10, PP14, and TD7, which were formulated with 30% PEG300. Blood samples were obtained prior to treatment (0) and 1, 3 and 6 h post-treatment, via submandibular bleeding, and subjected to hemolysis using standard methods. Clarified lysates, free of cell debris and red blood cell ghosts were analyzed by cation-exchange HPLC to determine the levels of drug-modified hemoglobin (adducts); and to conduct oxygen equilibrium studies to determine degrees of shift in p50 values using methodologies described earlier for in vitro studies on human samples. In a subsequent follow-up experiment, a new excipient obtained from Catalent Pharma Solutions was also used to formulate PP14 and used for a single intraperitoneal (IP) and oral (150 mg/kg body weight) dose. Blood samples were obtained prior to treatment (0) and 1, 3 or 5 h post-treatment, via submandibular bleeding, and used to determine the levels of drug-modified hemoglobin (adducts); and to conduct oxygen equilibrium studies to determine degrees of shift in p50 values as described above.

T2 sequence (P01942 2-142 limits assumed): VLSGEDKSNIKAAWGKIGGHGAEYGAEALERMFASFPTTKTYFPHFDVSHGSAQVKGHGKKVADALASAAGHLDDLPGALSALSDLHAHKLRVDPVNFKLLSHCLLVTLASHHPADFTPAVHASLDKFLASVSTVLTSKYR
T2 sequence (P02088 2-147 partner limits assumed): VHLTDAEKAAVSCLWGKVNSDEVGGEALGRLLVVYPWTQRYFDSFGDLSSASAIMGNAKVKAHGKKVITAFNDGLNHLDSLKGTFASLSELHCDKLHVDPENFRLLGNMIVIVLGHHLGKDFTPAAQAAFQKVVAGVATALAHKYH

Turning to `COC(=O)c1ccc(COc2cccc(O)c2C=O)cn1` [PP14, Methyl 5-((2-formyl-3-hydroxyphenoxy)methyl)picolinate], the “Hb Modification (%)” value in data set [1] is 85.3 ± 11.3%. For the same compound, in data set [2] (6 biological replicates), the “Fixed Adducts (%)” value is reported as 96.1 ± 1.1% and the “Unfixed Adduct (%)” value was 91.8 ± 11.6%. For the same compound, in data set [2] (fixed relative to unfixed adducts), the “Partitioning Ratio (%)” value turned out to be 102.2 ± 8.0%. In data set [3], the “metabolism upon oral administration” value is listed as “rapidly metabolizes into its carboxylic acid metabolite”. Also, the inhibition – broadly, how much of the control response was suppressed – at 2000 µM in data set [4] was 83.1 ± 6.9%. Further, in data set [5] (30% PEG300), the “increase in Hb affinity (Δp50)” value worked out at 12%. In data set [5] (Catalent excipient, 5 hr), the “increase in Hb affinity (Δp50)” value turned out to be 43.5±7.7%. Also, in data set [5] (oral gavage 150 mg/kg, Catalent excipient), the “increase in Hb oxygen affinity (Δp50)” value came to 10.3±1.5%.

Source of the values: patent publication US20240109843A1, “BENZALDEHYDE COMPOUNDS WITH DIRECT POLYMER DESTABILIZING EFFECTS TO TREAT SICKLE CELL DISEASE” (VIRGINIA COMMONWEALTH UNIVERSITY, priority 2018, published 2024).
